Tested on: Bacillus cereus
Test: Inhibition of Bacillus cereus PC-PLC assessed as residual activity at 10 uM using phosphatidylcholine as substrate measured after 1 hr by horseradish peroxidase/alkaline phosphatase/choline oxidase-coupled amplex red reagent based fluorescence assay relative to control

Structure (SMILES)	Activity
COc1ccc(CNc2ccc(N3CCOCC3)cc2)cc1	3.2%
COc1ccccc1CNc1ccc(N2CCOCC2)cc1	1.2%
COC(=O)c1cc(NCc2cccc(O)c2)ccc1N1CCOCC1	52.8%
Cc1ccccc1CNc1ccc(N2CCCCC2)cc1	14.7%
Clc1ccc(CNc2ccc(N3CCNCC3)cc2)cc1	31.3%
Cc1cccc(CNc2ccc(N3CCOCC3)c(C(=O)O)c2)c1	23.7%
O=C(O)c1cc(NCc2cccc(O)c2)ccc1N1CCOCC1	41.6%
CC(C)(C)OC(=O)N1CCN(c2ccc(NCc3ccccc3)cc2)CC1	42.3%
COC(=O)c1cc(NCc2ccccc2O)ccc1N1CCOCC1	38.6%
COC(=O)c1cc(NCc2ccccc2F)ccc1N1CCOCC1	56.8%
Oc1ccc(CNc2ccc(N3CCOCC3)cc2)cc1	6.5%
Clc1ccc(CNc2ccc(N3CCOCC3)cc2)cc1	12.9%
CC(C)(C)OC(=O)N1CCN(c2ccc(NCc3ccc(O)cc3)cc2)CC1	23.9%
CN1CCN(c2ccc(NCc3ccc(F)cc3)cc2)CC1	23.9%
CC(C)(C)OC(=O)N1CCN(c2ccc(NCc3ccc(F)cc3)cc2)CC1	68.3%
Cc1ccccc1CNc1ccc(N2CCNCC2)cc1	29.3%
FC(F)(F)c1ccccc1CNc1ccc(N2CCNCC2)cc1	30.4%
c1ccc(CNc2ccc(N3CCNCC3)cc2)cc1	26.3%
Cc1ccccc1CNc1ccc(N2CCN(C)CC2)cc1	40.9%
COC(=O)c1cc(NCc2cccc(F)c2)ccc1N1CCOCC1	64.5%
CN1CCN(c2ccc(NCc3cccc(O)c3)cc2)CC1	12.7%
Brc1ccc(CNc2ccc(N3CCOCC3)cc2)cc1	18.1%
Fc1ccccc1CNc1ccc(N2CCNCC2)cc1	24.1%
CC(C)(C)OC(=O)N1CCN(c2ccc(NCc3ccccc3C(F)(F)F)cc2)CC1	41.3%
O=C(O)c1cc(NCc2ccc(O)cc2)ccc1N1CCOCC1	43.8%
O=C(O)c1cc(NCc2ccccc2Cl)ccc1N1CCOCC1	11.5%

Structure (SMILES)	Activity
COC(=O)c1cc(NCc2ccc(C)cc2)ccc1N1CCOCC1	54.3%
Oc1cccc(CNc2ccc(N3CCCCC3)cc2)c1	7.6%
CN1CCN(c2ccc(NCc3ccccc3F)cc2)CC1	42.7%
FC(F)(F)c1cccc(CNc2ccc(N3CCOCC3)cc2)c1	23.4%
Clc1cccc(CNc2ccc(N3CCNCC3)cc2)c1	27.4%
COC(=O)c1cc(NCc2ccc(-c3ccccc3)cc2)ccc1N1CCOCC1	100%
CN1CCN(c2ccc(NCc3cccc(F)c3)cc2)CC1	44.2%
Cc1ccc(CNc2ccc(N3CCOCC3)c(C(=O)O)c2)cc1	33.4%
CN1CCN(c2ccc(NCc3ccc(Cl)cc3)cc2)CC1	16.6%
Oc1ccccc1CNc1ccc(N2CCCCC2)cc1	14.8%
Cc1cc(C)c(CNc2ccc(N3CCOCC3)cc2)c(C)c1	28.9%
O=C(O)c1cc(NCc2cccc(Oc3ccccc3)c2)ccc1N1CCOCC1	47.5%
Fc1ccc(CNc2ccc(N3CCNCC3)cc2)cc1	21.1%
Fc1cccc(CNc2ccc(N3CCCCC3)cc2)c1	10.7%
Brc1ccccc1CNc1ccc(N2CCCCC2)cc1	28%
CC(C)(C)OC(=O)N1CCN(c2ccc(NCc3ccccc3O)cc2)CC1	26.5%
CC(C)(C)OC(=O)N1CCN(c2ccc(NCc3ccccc3Br)cc2)CC1	35.6%
Cc1cccc(CNc2ccc(N3CCOCC3)cc2)c1	8.3%
CC(C)(C)OC(=O)N1CCN(c2ccc(NCc3ccc(Cl)cc3)cc2)CC1	53.3%
COC(=O)c1cc(NCc2c(C)cc(C)cc2C)ccc1N1CCOCC1	96.8%
Cc1cc(C)c(CNc2ccc(N3CCOCC3)c(C(=O)O)c2)c(C)c1	45.3%
Fc1ccc(CNc2ccc(N3CCOCC3)cc2)cc1	1.8%
O=C(O)c1cc(NCc2ccc(-c3ccccc3)cc2)ccc1N1CCOCC1	40.1%
O=C(O)c1cc(NCc2cccc(Br)c2)ccc1N1CCOCC1	20.4%
COC(=O)c1cc(NCc2ccccc2C)ccc1N1CCOCC1	58.4%
COC(=O)c1cc(NCc2cccc(OC)c2)ccc1N1CCOCC1	64.6%

Structure (SMILES)	Activity
Clc1ccccc1CNc1ccc(N2CCNCC2)cc1	31%
COc1ccccc1CNc1ccc(N2CCN(C(=O)OC(C)(C)C)CC2)cc1	19.9%
CN1CCN(c2ccc(NCc3cccc(Cl)c3)cc2)CC1	19.5%
COC(=O)c1cc(NCc2ccccc2Br)ccc1N1CCOCC1	56.7%
COC(=O)c1cc(NCc2cccc(C)c2)ccc1N1CCOCC1	54%
Fc1ccccc1CNc1ccc(N2CCCCC2)cc1	9%
Clc1ccc(CNc2ccc(N3CCCCC3)cc2)cc1	23%
COC(=O)c1cc(NCc2ccccc2Cl)ccc1N1CCOCC1	73.1%
Brc1ccccc1CNc1ccc(N2CCOCC2)cc1	14.1%
Clc1ccccc1CNc1ccc(N2CCCCC2)cc1	22.6%
O=C(O)c1cc(NCc2ccccc2F)ccc1N1CCOCC1	29.9%
c1ccc(CNc2ccc(N3CCOCC3)cc2)cc1	0%
O=C(O)c1cc(NCc2ccccc2)ccc1N1CCOCC1	32.5%
Cc1ccccc1CNc1ccc(N2CCN(C(=O)OC(C)(C)C)CC2)cc1	32.2%
Fc1cccc(CNc2ccc(N3CCOCC3)cc2)c1	6.1%
O=C(O)c1cc(NCc2cccc(C(F)(F)F)c2)ccc1N1CCOCC1	44.6%
COC(=O)c1cc(NCc2ccc(O)cc2)ccc1N1CCOCC1	48.3%
COC(=O)c1cc(NCc2ccccc2)ccc1N1CCOCC1	57.7%
O=C(O)c1cc(NCc2ccc(Br)cc2)ccc1N1CCOCC1	28.7%
COC(=O)c1cc(NCc2ccc(Br)cc2)ccc1N1CCOCC1	77.3%
CN1CCN(c2ccc(NCc3ccc(O)cc3)cc2)CC1	9.4%
COC(=O)c1cc(NCc2ccc(OC)cc2)ccc1N1CCOCC1	58.9%
Clc1cccc(CNc2ccc(N3CCCCC3)cc2)c1	24.7%
O=C(O)c1cc(NCc2ccc(F)cc2)ccc1N1CCOCC1	30.3%
COC(=O)c1cc(NCc2ccc(Cl)cc2)ccc1N1CCOCC1	87.5%
COc1ccccc1CNc1ccc(N2CCN(C)CC2)cc1	29.3%

Structure (SMILES)	Activity
FC(F)(F)c1ccccc1CNc1ccc(N2CCCCC2)cc1	49.3%
Cc1ccc(CNc2ccc(N3CCOCC3)cc2)cc1	5.4%
CN1CCN(c2ccc(NCc3ccccc3Br)cc2)CC1	20%
Brc1cccc(CNc2ccc(N3CCOCC3)cc2)c1	11.6%
Fc1cccc(CNc2ccc(N3CCNCC3)cc2)c1	26%
CN1CCN(c2ccc(NCc3ccccc3Cl)cc2)CC1	29.7%
COc1ccccc1CNc1ccc(N2CCOCC2)c(C(=O)O)c1	32.5%
Oc1ccccc1CNc1ccc(N2CCNCC2)cc1	37.9%
Oc1ccccc1CNc1ccc(N2CCOCC2)cc1	0%
COC(=O)c1cc(NCc2cccc(Oc3ccccc3)c2)ccc1N1CCOCC1	130%
CC(C)(C)OC(=O)N1CCN(c2ccc(NCc3cccc(Cl)c3)cc2)CC1	36.8%
O=C(O)c1cc(NCc2cccc(F)c2)ccc1N1CCOCC1	49.5%
O=C(O)c1cc(NCc2ccccc2C(F)(F)F)ccc1N1CCOCC1	34.1%
CN1CCN(c2ccc(NCc3ccccc3O)cc2)CC1	13.4%
Cc1ccccc1CNc1ccc(N2CCOCC2)cc1	2.2%
COc1cccc(CNc2ccc(N3CCOCC3)c(C(=O)O)c2)c1	28.1%
O=C(O)c1cc(NCc2ccc(Cl)cc2)ccc1N1CCOCC1	26.7%
Oc1cccc(CNc2ccc(N3CCNCC3)cc2)c1	30.9%
COC(=O)c1cc(NCc2ccc(C(F)(F)F)cc2)ccc1N1CCOCC1	78.6%
Clc1ccccc1CNc1ccc(N2CCOCC2)cc1	7.9%
Cc1ccccc1CNc1ccc(N2CCOCC2)c(C(=O)O)c1	35%
COc1ccccc1CNc1ccc(N2CCCCC2)cc1	9.9%
Oc1ccc(CNc2ccc(N3CCCCC3)cc2)cc1	11%
COc1cccc(CNc2ccc(N3CCOCC3)cc2)c1	5.6%
c1ccc(Oc2cccc(CNc3ccc(N4CCOCC4)cc3)c2)cc1	39.3%
CN1CCN(c2ccc(NCc3ccccc3C(F)(F)F)cc2)CC1	25.4%

Structure (SMILES)	Activity
O=C(O)c1cc(NCc2ccccc2O)ccc1N1CCOCC1	40%
c1ccc(CNc2ccc(N3CCCCC3)cc2)cc1	8.1%
COC(=O)c1cc(NCc2ccc(F)cc2)ccc1N1CCOCC1	48.9%
COC(=O)c1cc(NCc2cccc(Br)c2)ccc1N1CCOCC1	60.9%
CC(C)(C)OC(=O)N1CCN(c2ccc(NCc3cccc(F)c3)cc2)CC1	33.5%
COC(=O)c1cc(NCc2ccccc2C(F)(F)F)ccc1N1CCOCC1	83%
COC(=O)c1cc(NCc2ccccc2OC)ccc1N1CCOCC1	43.7%
CC(C)(C)OC(=O)N1CCN(c2ccc(NCc3ccccc3Cl)cc2)CC1	43.2%
COc1ccccc1CNc1ccc(N2CCNCC2)cc1	27.7%
Fc1ccc(CNc2ccc(N3CCCCC3)cc2)cc1	6.6%
CC(C)(C)OC(=O)N1CCN(c2ccc(NCc3cccc(O)c3)cc2)CC1	18.4%
O=C(O)c1cc(NCc2ccc(C(F)(F)F)cc2)ccc1N1CCOCC1	45.5%
COC(=O)c1cc(NCc2cccc(Cl)c2)ccc1N1CCOCC1	65.6%
COC(=O)c1cc(NCc2cccc(C(F)(F)F)c2)ccc1N1CCOCC1	64.1%
O=C(O)c1cc(NCc2ccccc2Br)ccc1N1CCOCC1	40.4%
Oc1cccc(CNc2ccc(N3CCOCC3)cc2)c1	3.4%
Clc1cccc(CNc2ccc(N3CCOCC3)cc2)c1	9.1%
Oc1ccc(CNc2ccc(N3CCNCC3)cc2)cc1	51.3%
COc1ccc(CNc2ccc(N3CCOCC3)c(C(=O)O)c2)cc1	32.3%
CC(C)(C)OC(=O)N1CCN(c2ccc(NCc3ccccc3F)cc2)CC1	29.4%
FC(F)(F)c1ccc(CNc2ccc(N3CCOCC3)cc2)cc1	27.6%
CN1CCN(c2ccc(NCc3ccccc3)cc2)CC1	31.5%

Reference: ChEMBL document CHEMBL4680202, “Development, synthesis and biological investigation of a novel class of potent PC-PLC inhibitors” (Eur J Med Chem, 2020)
